Where a name gives a salt, the structure may show the parent alone.

The inhibition is the percentage by which the read-out fell short of the control. The IC50 is the concentration at which inhibition is half-maximal.

The assay deals with T1, recombinant IRAK-4 kinase (Homo sapiens, UniProt Q9NWZ3).
T1 construct: purchased Millipore, USA
T1 sequence (Q9NWZ3 1-460): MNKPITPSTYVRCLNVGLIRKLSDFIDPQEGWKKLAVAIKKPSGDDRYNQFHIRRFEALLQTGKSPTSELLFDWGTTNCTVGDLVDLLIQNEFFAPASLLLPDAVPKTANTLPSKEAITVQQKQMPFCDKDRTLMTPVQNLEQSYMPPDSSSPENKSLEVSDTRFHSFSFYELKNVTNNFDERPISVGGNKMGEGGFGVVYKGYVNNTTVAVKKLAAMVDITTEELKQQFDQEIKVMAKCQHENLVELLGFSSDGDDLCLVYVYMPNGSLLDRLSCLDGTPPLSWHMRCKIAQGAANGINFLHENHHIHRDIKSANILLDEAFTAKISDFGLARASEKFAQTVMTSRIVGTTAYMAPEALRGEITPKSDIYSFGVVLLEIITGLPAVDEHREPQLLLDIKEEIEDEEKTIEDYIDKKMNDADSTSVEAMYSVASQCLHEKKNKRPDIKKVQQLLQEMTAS
Nature of the assay: IRAK-4 biochemical assay (TR-FRET). The following applies: IRAK-4 enzyme, 20 μM ATP; for inhibition at 0.1 µM: compound at 0.1 μM; for inhibition at 1 µM: compound at 1 μM; for IC50: dose response. The protocol:
Compounds were tested for their potential to inhibit IRAK-4 enzyme in a TR-FRET assay using recombinant IRAK-4 kinase from Millipore, USA. The assay buffer was 50 mM Tris-HCl pH 7.5, 20 mM MgCl2, 1 mM EGTA, 2 mM DTT, 3 mM MnCl2 and 0.01% Tween 20.5 ng of IRAK-4 kinase was used for the assay. After pre-incubation of enzyme with test compound for 30 minutes at room temperature, a substrate mixture containing 100 nM Biotin Histone H3 (Millipore, USA) and 20 μM ATP (Sigma, USA) was added and the reaction was incubated for 30 min. Post incubation, the reaction was stopped by the addition of stop mix containing 40 mM EDTA, 1 nM of Europium-Anti-Phospho-Histone H3 (Ser10) antibody (Perkin Elmer, USA) and 20 nM SureLight Allophycocyanin-Streptavidin (Perkin Elmer, USA). The fluorescence emission at 615 nm and 665 nm were measured at an excitation of 340 nm and the percent inhibition was estimated from the ratio of the fluorescence intensities [(F665/F615)×10000]. […] The IC50 values were estimated by fitting the dose-response data to sigmoidal dose response (variable slope), curve fitting program using Graphpad Prism software Version 6.01.
Background: Time-resolved FRET reads energy transfer from a long-lived donor to a nearby acceptor.

In the case of `Cn1ncc2cc(N3CC[C@@H](O)C3)c(NC(=O)c3cccc(N4CC[C@H](O)C4)n3)cc21` [Example 24, 6-((S)-3-hydroxypyrrolidin-1-yl)—N—(5-((R)-3-hydroxypyrrolidin-1-yl)-1-methyl-1H-indazol-6-yl)picolinamide], the inhibition at 0.1 µM was found to be 33%, the inhibition at 1 µM came out at 80% and the IC50 is 100 to 250 nM.

For the molecule `Cn1ncc2cc(N3CC[C@H](O)C3)c(NC(=O)c3cccc(N4CC[C@H](O)C4)n3)cc21` [Example 25, 6-((S)-3-hydroxypyrrolidin-1-yl)—N—(5-((S)-3-hydroxypyrrolidin-1-yl)-1-methyl-1H-indazol-6-yl)picolinamide], the inhibition at 0.1 µM was 24%, the inhibition at 1 µM stood at 71% and the 50% inhibitory concentration (IC50) was more than 250 nM.

For the molecule `Cn1ncc2cc(N3CC[C@H](O)C3)c(NC(=O)c3coc(-c4ccnc5[nH]ccc45)n3)cc21` [Example 26, (S)—N—(5-(3-hydroxypyrrolidin-1-yl)-1-methyl-1H-indazol-6-yl)-2-(1H-pyrrolo[2,3-b]pyridin-4-yl)oxazole-4-carboxamide], the inhibition at 0.1 µM stood at 96%, the inhibition at 1 µM was 92% and the IC50 was less than 100 nM.

Regarding `Cc1cc(-c2nc(C(=O)Nc3cc4[nH]ncc4cc3N3CC[C@H](O)C3)co2)ccn1` [Example 27, (S)—N—(5-(3-hydroxypyrrolidin-1-yl)-1H-indazol-6-yl)-2-(2-methylpyridin-4-yl)oxazole-4-carboxamide], the inhibition at 0.1 µM was found to be 88%, the inhibition at 1 µM worked out at 97% and the IC50 is more than 250 nM.

For the molecule `Cn1ncc2cc(N3CC[C@H](O)C3)c(NC(=O)c3coc(-c4ccnc(N)c4F)n3)cc21` [Example 28, (S)-2-(2-amino-3-fluoropyridin-4-yl)—N—(5-(3-hydroxypyrrolidin-1-yl)-1-methyl-1H-indazol-6-yl)oxazole-4-carboxamide], the inhibition at 0.1 µM worked out at 96%, the inhibition at 1 µM worked out at 98% and the IC50 is less than 100 nM.

On to `Cn1ncc2cc(N3CC[C@@H](O)C3)c(NC(=O)c3coc(-c4cccnc4N)n3)cc21` [Example 29, (R)-2-(2-aminopyridin-3-yl)—N—(5-(3-hydroxypyrrolidin-1-yl)-1-methyl-1H-indazol-6-yl)oxazole-4-carboxamide hydrochloride], for which the inhibition at 0.1 µM stood at 14%, the inhibition at 1 µM amounted to 95% and the half-inhibitory concentration (IC50) is less than 100 nM.

Take `CN1CCN(c2nc(C(=O)Nc3cc4c(cnn4C)cc3N3CC[C@H](O)C3)co2)CC1` [Example 30, (S)—N—(5-(3-hydroxypyrrolidin-1-yl)-1-methyl-1H-indazol-6-yl)-2-(4-methylpiperazin-1-yl)oxazole-4-carboxamide hydrochloride]: the inhibition at 0.1 µM was 0% and the inhibition at 1 µM turned out to be 20%.

Consider `Cn1ncc2cc(N3CC[C@H](O)C3)c(NC(=O)c3coc(N4CCNCC4)n3)cc21` [Example 31, (S)—N—(5-(3-hydroxypyrrolidin-1-yl)-1-methyl-1H-indazol-6-yl)-2-(piperazin-1-yl)oxazole-4-carboxamide hydrochloride], for which the inhibition at 0.1 µM was determined as 0% and the inhibition at 1 µM was found to be 37%.

On to `CCn1ncc2cc(N3CC[C@H](O)C3)c(NC(=O)c3coc(-c4ccnc(C)c4)n3)cc21` [Example 32, (S)—N—(1-ethyl-5-(3-hydroxypyrrolidin-1-yl)-1H-indazol-6-yl)-2-(2-methylpyridin-4-yl)oxazole-4-carboxamide hydrochloride], for which the inhibition at 0.1 µM worked out at 62%, the inhibition at 1 µM stood at 95% and the 50% inhibitory concentration (IC50) is less than 100 nM.

With `Cc1cc(-c2nc(C(=O)Nc3cc4c(cnn4C4CC4)cc3N3CC[C@H](O)C3)co2)ccn1` [Example 33, (S)—N—(1-cyclopropyl-5-(3-hydroxypyrrolidin-1-yl)-1H-indazol-6-yl)-2-(2-methylpyridin-4-yl)oxazole-4-carboxamide hydrochloride], the inhibition at 0.1 µM worked out at 25%, the inhibition at 1 µM came out at 87% and the IC50 lay within 100 to 250 nM.

On to `Cn1ncc2cc(N3CC[C@H](O)C3)c(NC(=O)c3coc(C4=CCNCC4)n3)cc21` [Example 34, (S)—N—(5-(3-hydroxypyrrolidin-1-yl)-1-methyl-1H-indazol-6-yl)-2-(1,2,3,6-tetrahydropyridin-4-yl)oxazole-4-carboxamide hydrochloride], for which the inhibition at 0.1 µM worked out at 0% and the inhibition at 1 µM came out at 41%.

Take `Cc1nccc(-c2nc(C(=O)Nc3cc4c(cnn4C)cc3N3CC[C@H](O)C3)co2)n1` [Example 35, (S)—N—(5-(3-hydroxypyrrolidin-1-yl)-1-methyl-1H-indazol-6-yl)-2-(2-methylpyrimidin-4-yl)oxazole-4-carboxamide hydrochloride]: the inhibition at 0.1 µM turned out to be 45%, the inhibition at 1 µM came out at 93% and the IC50 was in the range of 100 to 250 nM.

As for `Cc1cc(-c2nc(C)c(C(=O)Nc3cc4c(cnn4C)cc3N3CC[C@H](O)C3)o2)ccn1` [Example 36, hydrochloride], the inhibition at 0.1 µM is 2% and the inhibition at 1 µM turned out to be 1%.

For the molecule `Cn1ncc2cc(N3CC[C@H](O)C3)c(NC(=O)c3coc(C4CCNCC4)n3)cc21` [Example 37, (S)—N—(5-(3-hydroxypyrrolidin-1-yl)-1-methyl-1H-indazol-6-yl)-2-(piperidin-4-yl)oxazole-4-carboxamide hydrochloride], the inhibition at 0.1 µM came out at 0% and the inhibition at 1 µM is 0%.

For `Cc1cc(-c2nc(C(=O)Nc3cc4c(cnn4C)cc3N3C4CCC3CC(O)C4)co2)ccn1` (stereo not drawn) [Example 38, N—(5-(3-hydroxy-8-azabicyclo[3.2.1]octan-8-yl)-1-methyl-1H-indazol-6-yl)-2-(2-methylpyridin-4-yl)oxazole-4-carboxamide], the inhibition at 0.1 µM stood at 5%, the inhibition at 1 µM was 77% and the half-inhibitory concentration (IC50) was more than 250 nM.

As to `Cc1cc(-c2ncc(C(=O)Nc3cc4c(cnn4C)cc3N3CC[C@H](O)C3)o2)ccn1` [Example 39, (S)—N—(5-(3-hydroxypyrrolidin-1-yl)-1-methyl-1H-indazol-6-yl)-2-(2-methylpyridin-4-yl)oxazole-5-carboxamide], the inhibition at 0.1 µM was 49%, the inhibition at 1 µM is 92% and the IC50 is 100 to 250 nM.

`Cc1cc(-c2nc(C(=O)Nc3cc4c(cnn4C)cc3N3CCC(O)(CO)CC3)co2)ccn1` [Example 40, N-(5-(4-hydroxy-4-(hydroxymethyl)piperidin-1-yl)-1-methyl-1H-indazol-6-yl)-2-(2-methylpyridin-4-yl)oxazole-4-carboxamide]: the inhibition at 0.1 µM stood at 95%, the inhibition at 1 µM came to 98% and the IC50 is less than 100 nM.

Regarding `Cc1cc(-c2nc(C(=O)Nc3cc4c(cnn4C)cc3N3CC[C@H](O)C3)c(C)o2)ccn1` [Example 41, (S)—N—(5-(3-hydroxypyrrolidin-1-yl)-1-methyl-1H-indazol-6-yl)-5-methyl-2-(2-methylpyridin-4-yl)oxazole-4-carboxamide hydrochloride], the inhibition at 0.1 µM was determined as 0% and the inhibition at 1 µM came to 17%.
